Tests used:
[1] = Inhibition of reverse transcriptase K103N/Y181C double mutant in HIV1 infected in human MT4 cells assessed as protection against virus induced cytotoxicity after 5 days by MTT assay
[2] = Inhibition of reverse transcriptase L100I mutant in HIV1 infected in human MT4 cells assessed as protection against virus induced cytotoxicity after 5 days by MTT assay
[3] = Inhibition of reverse transcriptase E138K mutant in HIV1 infected in human MT4 cells assessed as protection against virus induced cytotoxicity after 5 days by MTT assay
[4] = Inhibition of reverse transcriptase Y181C mutant in HIV1 infected in human MT4 cells assessed as protection against virus induced cytotoxicity after 5 days by MTT assay
[5] = Inhibition of reverse transcriptase Y188L mutant in HIV1 infected in human MT4 cells assessed as protection against virus induced cytotoxicity after 5 days by MTT assay
[6] = Inhibition of reverse transcriptase F227L/V106A double mutant in HIV1 infected in human MT4 cells assessed as protection against virus induced cytotoxicity after 5 days by MTT assay
[7] = Inhibition of reverse transcriptase K103N mutant in HIV1 infected in human MT4 cells assessed as protection against virus induced cytotoxicity after 5 days by MTT assay

Row | SMILES | EC50 [1] [µM] | EC50 [2] [µM] | EC50 [3] [µM] | EC50 [4] [µM] | EC50 [5] [µM] | EC50 [6] [µM] | EC50 [7] [µM]
1 | Cc1cc(C)cc(S(=O)(=O)n2c(SCC(=O)Nc3ccc(S(C)(=O)=O)cc3)nc3ccccc32)c1 | > 10.6 | 0.088 | 0.15 | > 10.6 | > 10.6 | > 0.77 | 1.19
2 | COC(=O)c1ccc(NC(=O)CSc2nc3ccccc3n2S(=O)(=O)c2cc(C)cc(C)c2)cc1 | > 8.36 | 0.17 | 0.16 | > 8.36 | > 8.36 | > 8.36 | 0.96
3 | Cc1ccc(NC(=O)CSc2nc3ccccc3n2S(=O)(=O)c2cc(C)cc(C)c2)cc1 | > 3.13 | 0.24 | 0.16 | > 3.13 | > 3.13 | > 3.13 | > 3.13
4 | Cc1cc(C)cc(S(=O)(=O)n2c(OCC(=O)Nc3ccc(S(C)(=O)=O)cc3Cl)nc3ccccc32)c1 |  | 0.29 | 0.67 | 0.89 | > 228 | 1.82 | > 33.9
5 | Cc1cc(C)cc(S(=O)(=O)n2c(SCC(=O)Nc3ccc(S(N)(=O)=O)cc3)nc3ccccc32)c1 | > 27.2 | 0.073 | 0.06 | > 27.2 | 1.56 | 1.58 | 0.67
6 | Cc1cc(C)cc(S(=O)(=O)n2c(SCC(=O)Nc3ccc(C(=O)O)cc3)nc3ccccc32)c1 | > 124 | 1.82 | 1.35 | 23.6 | > 124 | > 124 | 11.8

— BindingDB's records for doi:10.1016/j.bmc.2017.12.033 (University of Messina, 2018)
